The values below are quoted from earlier work in US20130230587A1, “SUSTAINED RELEASE COMPOSITIONS” (Rubicon Research Private Limited, priority 2010, published 2013).

The structures appear in SMILES notation.

Consider `COc1ccc2c(c1)[C@]13CCCC[C@@H]1[C@H](C2)N(C)CC3` [Dextromethorphan], for which the “Time to peak plasma concentrations” value (absorbed from the gastrointestinal tract) is given as “approximately 2.5 hours”. Besides, the Plasma elimination half-life (in vivo) was 1.2 to 3.9 h.
